Source: patent US20090203750A1, “5-HT2C Receptor Agonists as Anorectic Agents” (priority 2005, published 2009)
pEC50: −log10 of the molar value. Like-named read-outs stand apart in the source and are kept apart here.

Columns and labels:
6 Hz seizure model = 6 Hz seizure model in mice; format: in vivo; conditions: 100 mg/kg i.p.
human 5-HT2A receptor = target: T1, human 5-HT2A receptor (Homo sapiens, UniProt P28223); test: Functional activity by Ca++-flux (intracellular calcium mobilization), 5-HT2A; format: cell-based; conditions: Ca++-flux, HEK-293 cells, NA = not active
T1 construct: expressed in transfected cells; host or cells: HEK-293
Method: The functional activity of the compounds for the human 5-HT2A, human 5-HT2B, and human 5-HT2C receptors is determined by measurement of Ca++-flux as detailed in the Examples, in transiently transfected HEK-293 cells and the results are summarized in Table I. Structures of compounds listed in Table I are given in Scheme 15.
(§1) The functional activity of compounds for the human 5-HT2A, human 5-HT2B, and human 5-HT2C receptors as agonists, partial agonists and antagonists is determined by measurement of Ca++-flux. The results are summarized in Table 1 where EC50 for different receptors are given (nM) and the ratio of activities 2A/2C and 2B/2C are also given. As noted above, other methods for assessing agonist/antagonist function of compounds for 5-HT2 family receptors are known in the art.
(§2) For these studies stably expressing lines of h5-HT2A, h5-HT2B, and h5-HT2C receptors are prepared in HEK-293 cells. For the h5-HT2A and h5-HT2C-INI receptors, stably expressing HEK-293 cell lines were constructed as previously described using a pIRES-NEO vector system (See: Rauser et al, J Pharmacol Exp Ther 299: 83-89, 2001).
(§3) Stable cell lines were plated with ˜40,000 cells/well into uncoated (3T3 cells) or poly-L-lysine coated (HEK293 cells) 96-well plates in DMEM supplemented with 5% dialyzed FBS. 16-24 hrs post-plating, the medium was aspirated and replaced with 30 μl/well of Calcium Assay Kit Component A Dye (Molecular Devices; Sunnyvale, Calif.) dissolved in 30 ml/bottle of assay buffer (2.5 mM probenecid, 20 mM Hepes, and 1× Hanks' Balanced Salt Solution (Invitrogen; Carlsbad, Calif.) (138 mM NaCl, 5.3 mM KCl, 1.3 mM CaCl2, 0.49 mM MgCl2, 0.41 mM MgSO4, 0.44 mM KH2PO4, 0.34 mM Na2HPO4) pH 7.4. Plates were incubated in the dye for 1 hr at 37° C. Dilutions were made in assay buffer as 2× stocks and added to 96-well drug plates. Fluorometric imaging was performed using a FlexStation II plate reader (Molecular Devices) reading the plate at 1.5 second intervals for 1 min. After establishing a fluorescent baseline (excitation at 485 nm and emission at 525 nm, using a […] cutoff), the FlexStation II automatically transferred 30 μl of 2× drug stocks from the drug plate to the cell plate at the 20 second time point with reading for another 40 seconds. Peak relative fluorescence units (RFU) were subtracted from baseline RFUs using SoftMax Pro (Molecular Devices) and values were imported into GraphPad Prism version 4.03 (GraphPad Software; San Diego, Calif.) for analysis. Ca++-flux studies are very convenient for initial screening of large numbers of compounds for agonist activity.
Compounds are resuspended in DMSO at a stock concentration of 2-15 mM and, for a typical agonist screen, are diluted in assay buffer to a final 2× concentration of 20 μM into drugs plates. Compounds are added in duplicate to cell plates using the FlexStation II as described to identify agonists, defined as having >10% of maximal 5-HT response. […] Generally, screens are performed twice with each determination being made in duplicate. Typical Z′-factor (Zhang et al., 1999) values for agonist screens ranged from 0.61-0.79 (5-HT2AR), 0.42-0.81 (5-HT2BR) and 0.38-0.72 (5-HT2CR); these Z′-factor values are adequate for screening studies in which N=2 determinations are made and the screens replicated for a total of N=4 determinations.
(§4) Compounds identified by primary screens to be agonists are subsequently used in concentration-response experiments to verify the initial observations and obtain agonist potencies. Concentration-response studies are performed in triplicate or quadruplicate at each concentration and repeated three times. Baseline-subtracted RFU values imported into GraphPad Prism are analyzed by non-linear regression to obtain pEC50 values, and normalized to maximal 5-HT response to obtain relative efficacies.

human 5-HT2B receptor = target: T2, human 5-HT2B receptor (Homo sapiens, UniProt P41595); test: Functional activity by Ca++-flux (intracellular calcium mobilization), 5-HT2B; format: cell-based; conditions: Ca++-flux, HEK-293 cells, NA = not active; for pEC50: read-out: 5-HT2B human EC50
T2 construct: expressed in transfected cells; host or cells: HEK293 (ATCC CRL-1573), retroviral infection with pBabepuro-FLAG-h5-HT2BR, polyclonal line

human 5-HT2C receptor = target: T3, human 5-HT2C receptor (Homo sapiens, UniProt P28335); test: Functional activity by Ca++-flux (intracellular calcium mobilization), 5-HT2C; format: cell-based; conditions: for pEC50: Ca++-flux, HEK-293 cells, NA = not active, read-out: 5-HT2C human EC50; for 2A/2C ratio: ratio of EC50 5-HT2A / 5-HT2C; for 2B/2C ratio: ratio of EC50 5-HT2B / 5-HT2C
T3 construct: expressed in transfected cells; host or cells: HEK-293
T3 sequence (P28335 33-458): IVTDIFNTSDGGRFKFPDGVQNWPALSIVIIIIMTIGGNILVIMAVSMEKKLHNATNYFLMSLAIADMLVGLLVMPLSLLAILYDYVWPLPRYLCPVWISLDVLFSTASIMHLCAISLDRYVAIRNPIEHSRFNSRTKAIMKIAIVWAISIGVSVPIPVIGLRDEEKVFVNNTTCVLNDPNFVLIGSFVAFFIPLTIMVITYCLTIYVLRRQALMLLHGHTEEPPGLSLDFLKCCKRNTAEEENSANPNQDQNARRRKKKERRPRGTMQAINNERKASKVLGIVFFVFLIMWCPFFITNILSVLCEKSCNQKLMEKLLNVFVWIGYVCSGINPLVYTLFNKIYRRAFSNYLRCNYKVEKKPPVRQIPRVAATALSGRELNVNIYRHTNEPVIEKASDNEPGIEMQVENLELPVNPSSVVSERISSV
Method: as §1, with “The results are summarized in Table 1 where EC50 for different receptors are given (nM) and the ratio of activities 2A/2C and 2B/2C are also given.” left out
as §2, §3
Compounds are resuspended in DMSO at a stock concentration of 2-15 mM and, for a typical agonist screen, are diluted in assay buffer to a final 2× concentration of 20 μM into drugs plates. Compounds are added in duplicate to cell plates using the FlexStation II as described to identify agonists, defined as having >10% of maximal 5-HT response. […] Generally, screens are performed twice with each determination being made in duplicate.
as §4

MOA = conditions: in vivo in rats, tryptamine potentiation test; Kaiser / Zirkel 1962; cited from earlier work

T1 sequence (P28223 whole entry): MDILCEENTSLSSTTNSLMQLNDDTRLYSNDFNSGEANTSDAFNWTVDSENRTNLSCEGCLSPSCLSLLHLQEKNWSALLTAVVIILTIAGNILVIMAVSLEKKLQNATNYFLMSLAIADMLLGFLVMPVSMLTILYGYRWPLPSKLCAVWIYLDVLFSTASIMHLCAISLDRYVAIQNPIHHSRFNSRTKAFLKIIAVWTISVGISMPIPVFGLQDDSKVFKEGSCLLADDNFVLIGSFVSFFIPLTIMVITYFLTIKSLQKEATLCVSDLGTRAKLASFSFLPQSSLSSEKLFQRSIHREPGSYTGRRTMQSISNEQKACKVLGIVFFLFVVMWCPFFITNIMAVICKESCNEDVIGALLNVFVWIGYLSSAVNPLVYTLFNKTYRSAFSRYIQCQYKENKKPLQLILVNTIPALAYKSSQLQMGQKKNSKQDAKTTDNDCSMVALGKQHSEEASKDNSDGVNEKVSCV
T2 sequence (P41595 whole entry): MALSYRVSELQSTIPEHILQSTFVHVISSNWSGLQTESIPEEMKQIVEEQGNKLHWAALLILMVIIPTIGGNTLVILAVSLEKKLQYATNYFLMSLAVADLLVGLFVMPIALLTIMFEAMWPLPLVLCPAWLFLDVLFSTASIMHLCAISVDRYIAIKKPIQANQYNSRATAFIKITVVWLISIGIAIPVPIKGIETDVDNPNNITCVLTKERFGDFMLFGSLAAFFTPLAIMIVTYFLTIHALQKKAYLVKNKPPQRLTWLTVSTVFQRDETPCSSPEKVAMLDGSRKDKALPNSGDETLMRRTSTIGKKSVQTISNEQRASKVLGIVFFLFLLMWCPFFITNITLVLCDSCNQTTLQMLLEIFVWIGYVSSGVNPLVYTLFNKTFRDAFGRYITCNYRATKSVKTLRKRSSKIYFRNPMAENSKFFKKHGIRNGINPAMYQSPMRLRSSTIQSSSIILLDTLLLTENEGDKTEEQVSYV

Row | Compound | pEC50 (human 5-HT2A receptor; Hydrochloride) | pEC50 (human 5-HT2B receptor; Hydrochloride) | pEC50 (human 5-HT2C receptor; Hydrochloride) | 2A/2C ratio (human 5-HT2C receptor; Hydrochloride) | 2B/2C ratio (human 5-HT2C receptor; Hydrochloride) | pEC50 (human 5-HT2C receptor) | pEC50 (human 5-HT2A receptor) | pEC50 (human 5-HT2B receptor) | 2A/2C ratio (human 5-HT2C receptor) | 2B/2C ratio (human 5-HT2C receptor) | also measured
1 | trans-(±)-(2-Phenyl-cyclopropyl)-methylamine Hydrochloride [TKU-II-17] | 7.30 | 7.73 | 8.02 | 5.18 | 1.94 |  |  |  |  |  | motor impairment (6 Hz seizure model; 15-60 minutes after dosing): minimal motor impairment; animals protected from seizure (6 Hz seizure model; after four hours): three of the four
2 | trans-aminomethyl-2-phenylcyclopropylamine |  |  |  |  |  |  |  |  |  |  | inhibition of MOA (MOA): not to inhibit MOA
3 | trans-(±)-[2-(4′-Trifluoromethyl-biphenyl-2-yl)-cyclopropyl]-methylamine Hydrochloride [TKU-II-120] |  |  |  |  |  | 8.00 |  |  |  |  | 5-HT2A human EC50 (human 5-HT2A receptor): Not; 5-HT2B human EC50 (human 5-HT2B receptor): Not
4 | trans-(+)-[2-(3-Bromo-phenyl)-cyclopropyl]-methylamine Hydrochloride [TKU-II-153-1] |  |  |  |  |  | 7.94 | 7.31 | 7.67 | 4.3 | 1.8 | 
5 | c1ccc(CNC[C@@H]2C[C@H]2c2ccccc2)cc1 (racemic) [TKU-II-36, trans-(±)-N-Benzyl-(2-phenyl-cyclopropylmethyl)-amine] |  |  |  |  |  | 5.13 | 3.91 | 2.99 | 16.5 | 137 | 
6 | trans-(±)-(2-Phenyl-cyclopropyl)-methylamine Hydrochloride [TKU-II-113] | 7.35 | 7.45 | 8.35 | 9.84 | 7.84 |  |  |  |  |  | 
